Reference: PubChem BioAssay (NCI)
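Cells were grown in 96-well plates and exposed to each compound for 48 hours at five concentrations; endpoints were interpolated linearly between bracketing concentrations, or set to the highest concentration if not reached. Here, GI50 denotes the concentration required for 50% inhibition of growth. TGI marks complete inhibition of growth.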

How the values were obtained:
Assay in all cases: NCI tumour cell line growth inhibition, 48 h
[1] = system: SR leukemia
[2] = system: IGROV1 ovarian
[3] = system: CCRF-CEM leukemia
[4] = system: COLO 205 colon
[5] = system: SW-620 colon
[6] = system: UACC-62 melanoma
[7] = system: U251 CNS
[8] = system: NCI-H522 lung
[9] = system: SNB-19 CNS
[10] = system: KM12 colon
[11] = system: SN12C renal
[12] = system: LOX IMVI melanoma
[13] = system: MDA-MB-468 breast
[14] = system: A498 renal
[15] = system: SK-OV-3 ovarian
[16] = system: K-562 leukemia
[17] = system: OVCAR-4 ovarian
[18] = system: M14 melanoma
[19] = system: CAKI-1 renal
[20] = system: RPMI-8226 leukemia
[21] = system: BT-549 breast
[22] = system: MDA-MB-435
[23] = system: SF-295 CNS
[24] = system: A549 NSCLC
[25] = system: UO-31 renal
[26] = system: SK-MEL-28 melanoma
[27] = system: OVCAR-3 ovarian
[28] = system: MOLT-4 leukemia
[29] = system: SF-268 CNS
[30] = system: OVCAR-5 ovarian
[31] = system: NCI-H460 lung
[32] = system: MCF7 breast
[33] = system: SK-MEL-5 melanoma
[34] = system: HCT-116 colon
[35] = system: HT29 colon
[36] = system: TK-10 renal
[37] = system: SK-MEL-2 melanoma
[38] = system: HOP-92 NSCLC
[39] = system: MALME-3M melanoma
[40] = system: PC-3 prostate
[41] = system: MDA-MB-231 breast
[42] = system: HOP-62 NSCLC
[43] = system: SF-539 CNS
[44] = system: HS 578T breast
[45] = system: T-47D breast
[46] = system: HL-60(TB) leukemia
[47] = system: DU-145 prostate
[48] = system: NCI-H226 lung
[49] = system: ACHN renal
[50] = system: HCC-2998 colon
[51] = system: NCI/ADR-RES ovarian
[52] = system: OVCAR-8 ovarian
[53] = system: 786-0 renal
[54] = system: EKVX NSCLC
[55] = system: SNB-75 CNS
[56] = system: RXF 393 renal
[57] = system: NCI-H23 lung
[58] = system: UACC-257 melanoma
[59] = system: HCT-15 colon

SMILES: Oc1ccc(Cl)c(Nc2ncnc3c2cnn3CC(Cl)c2ccc(Br)cc2)c1 (configuration not stated)
- GI50 [1]: 6.67 µM
- TGI [1]: 81.6 µM
- GI50 [2]: 2.39 µM
- TGI [2]: 8.31 µM
- GI50 [3]: 13.6 µM
- TGI [3]: 60.1 µM
- GI50 [4]: 17.7 µM
- TGI [4]: 38.7 µM
- GI50 [5]: 21.9 µM
- TGI [5]: 47.4 µM
- GI50 [6]: 12.6 µM
- TGI [6]: 25.2 µM
- GI50 [7]: 11.3 µM
- TGI [7]: 25.5 µM
- GI50 [8]: 7.4 µM
- TGI [8]: 27.8 µM
- GI50 [9]: 12.4 µM
- TGI [9]: 36 µM
- GI50 [10]: 19.3 µM
- TGI [10]: 42.9 µM
- GI50 [11]: 3.79 µM
- TGI [11]: 18.1 µM
- GI50 [12]: 2.09 µM
- TGI [12]: 11.8 µM
- GI50 [13]: 3.35 µM
- TGI [13]: 16.3 µM
- GI50 [14]: 16.2 µM
- TGI [14]: 30.7 µM
- GI50 [15]: 7.63 µM
- TGI [15]: 31.3 µM
- GI50 [16]: 0.0826 µM
- TGI [16]: 12.9 µM
- GI50 [17]: 13.1 µM
- TGI [17]: 54.4 µM
- GI50 [18]: 11.2 µM
- TGI [18]: 24.3 µM
- GI50 [19]: 3.72 µM
- TGI [19]: 28.6 µM
- GI50 [20]: 17 µM
- TGI [20]: 93.8 µM
- GI50 [21]: 12.7 µM
- TGI [21]: 25.4 µM
- GI50 [22]: 11.9 µM
- TGI [22]: 26.8 µM
- GI50 [23]: 6.2 µM
- TGI [23]: 27.3 µM
- GI50 [24]: 12.1 µM
- TGI [24]: 37.3 µM
- GI50 [25]: 2.34 µM
- TGI [25]: 17 µM
- GI50 [26]: 14.9 µM
- TGI [26]: 28.9 µM
- GI50 [27]: 7.99 µM
- TGI [27]: 38.8 µM
- GI50 [28]: 6.75 µM
- TGI [28]: 37.7 µM
- GI50 [29]: 6.07 µM
- TGI [29]: 33.5 µM
- GI50 [30]: 10.3 µM
- TGI [30]: 24.4 µM
- GI50 [31]: 16.7 µM
- TGI [31]: 36.5 µM
- GI50 [32]: 11.1 µM
- TGI [32]: 26.2 µM
- GI50 [33]: 10.5 µM
- TGI [33]: 22.3 µM
- GI50 [34]: 7.89 µM
- TGI [34]: 21.4 µM
- GI50 [35]: 13.9 µM
- TGI [35]: 31.9 µM
- GI50 [36]: 13.9 µM
- TGI [36]: 29 µM
- GI50 [37]: 17.5 µM
- TGI [37]: 34.3 µM
- GI50 [38]: 2.34 µM
- TGI [38]: 12.4 µM
- GI50 [39]: 12.3 µM
- TGI [39]: 25.1 µM
- GI50 [40]: 4.53 µM
- TGI [40]: 35.4 µM
- GI50 [41]: 7.29 µM
- TGI [41]: 21 µM
- GI50 [42]: 11.7 µM
- TGI [42]: 30.5 µM
- GI50 [43]: 4.64 µM
- TGI [43]: 18.1 µM
- GI50 [44]: 1.13 µM
- TGI [44]: 7.95 µM
- GI50 [45]: 4.48 µM
- TGI [45]: 55.4 µM
- GI50 [46]: 23.2 µM
- TGI [46]: 62.2 µM
- GI50 [47]: 10.6 µM
- TGI [47]: 32 µM
- GI50 [48]: 11.8 µM
- TGI [48]: 28.7 µM
- GI50 [49]: 2.12 µM
- TGI [49]: 15.3 µM
- GI50 [50]: 14.9 µM
- TGI [50]: 29.1 µM
- GI50 [51]: 7.47 µM
- TGI [51]: 27.4 µM
- GI50 [52]: 7.97 µM
- TGI [52]: 25.9 µM
- GI50 [53]: 5.7 µM
- TGI [53]: 23.3 µM
- GI50 [54]: 11.9 µM
- TGI [54]: 34.6 µM
- GI50 [55]: 1.03 µM
- TGI [55]: 5.58 µM
- GI50 [56]: 0.766 µM
- TGI [56]: 7.17 µM
- GI50 [57]: 12.6 µM
- TGI [57]: 26.3 µM
- GI50 [58]: 13.8 µM
- TGI [58]: 28.3 µM
- GI50 [59]: 4.57 µM
- TGI [59]: 19.4 µM

SMILES: Cn1cc(-c2cc(N)n3nc(-c4c[nH]c5ccc(Cl)cc45)cc3n2)c2cc(Br)cnc21
- GI50 [1]: 2.27 µM
- TGI [1]: > 100 µM
- GI50 [2]: 1.94 µM
- TGI [2]: 4.47 µM
- GI50 [3]: 3.32 µM
- TGI [3]: 10.7 µM
- GI50 [4]: 2.83 µM
- TGI [4]: 6.04 µM
- GI50 [5]: 1.82 µM
- TGI [5]: 3.5 µM
- GI50 [6]: 1.69 µM
- TGI [6]: 3.6 µM
- GI50 [7]: 1.81 µM
- TGI [7]: 3.39 µM
- GI50 [8]: 1.9 µM
- TGI [8]: 3.88 µM
- GI50 [9]: 3.25 µM
- TGI [9]: 11.5 µM
- GI50 [10]: 2.17 µM
- TGI [10]: 4.87 µM
- GI50 [11]: 10.1 µM
- TGI [11]: 26.4 µM
- GI50 [12]: 1.95 µM
- TGI [12]: 3.44 µM
- GI50 [13]: 1.32 µM
- TGI [13]: 2.73 µM
- GI50 [14]: 13.1 µM
- TGI [14]: 29.4 µM
- GI50 [15]: 18.6 µM
- TGI [15]: 72.1 µM
- GI50 [16]: 2.4 µM
- TGI [16]: 6.27 µM
- GI50 [17]: 2.98 µM
- TGI [17]: 9.01 µM
- GI50 [18]: 2.37 µM
- TGI [18]: 5.88 µM
- GI50 [19]: 3.07 µM
- TGI [19]: 16.7 µM
- GI50 [20]: 3.88 µM
- TGI [20]: 34 µM
- GI50 [21]: 13.8 µM
- TGI [21]: 28.6 µM
- GI50 [22]: 2.06 µM
- TGI [22]: 4.48 µM
- GI50 [23]: 1.84 µM
- TGI [23]: 4.04 µM
- GI50 [24]: 2.13 µM
- TGI [24]: 6.32 µM
- GI50 [25]: 2.93 µM
- TGI [25]: 12.1 µM
- GI50 [26]: 2.1 µM
- TGI [26]: 4.97 µM
- GI50 [27]: 3.23 µM
- TGI [27]: 9.96 µM
- GI50 [28]: 1.76 µM
- TGI [28]: 5.68 µM
- GI50 [29]: 7.39 µM
- TGI [29]: 43.9 µM
- GI50 [30]: 2.01 µM
- TGI [30]: 6.48 µM
- GI50 [31]: 1.92 µM
- TGI [31]: 3.81 µM
- GI50 [32]: 1.77 µM
- TGI [32]: 3.31 µM
- GI50 [33]: 4.35 µM
- TGI [33]: 17 µM
- GI50 [34]: 2.01 µM
- TGI [34]: 4.03 µM
- GI50 [35]: 1.93 µM
- TGI [35]: 3.84 µM
- GI50 [36]: 2.27 µM
- TGI [36]: 7.2 µM
- GI50 [37]: 2.63 µM
- TGI [37]: 7.51 µM
- GI50 [38]: 2.16 µM
- TGI [38]: 4.58 µM
- GI50 [39]: 2.18 µM
- TGI [39]: 5.19 µM
- GI50 [40]: 2.27 µM
- TGI [40]: 5.79 µM
- GI50 [41]: 1.98 µM
- TGI [41]: 4.27 µM
- GI50 [42]: 4.41 µM
- TGI [42]: 27.6 µM
- GI50 [43]: 1.66 µM
- TGI [43]: 3.22 µM
- GI50 [44]: 12.6 µM
- TGI [44]: 55.5 µM
- GI50 [45]: 2.38 µM
- TGI [45]: 7.3 µM
- GI50 [46]: 2.06 µM
- TGI [46]: 5.15 µM
- GI50 [47]: 3.18 µM
- TGI [47]: 9.77 µM
- GI50 [48]: 2.23 µM
- TGI [48]: 11.5 µM
- GI50 [49]: 1.87 µM
- TGI [49]: 3.92 µM
- GI50 [50]: 1.76 µM
- TGI [50]: 3.36 µM
- GI50 [52]: 2.29 µM
- TGI [52]: 5.22 µM
- GI50 [53]: 1.64 µM
- TGI [53]: 3.06 µM
- GI50 [54]: 3.04 µM
- TGI [54]: 14.1 µM
- GI50 [56]: 1.72 µM
- TGI [56]: 3.32 µM
- GI50 [57]: 2.63 µM
- TGI [57]: 7.83 µM
- GI50 [58]: 12.5 µM
- TGI [58]: 25.5 µM
- GI50 [59]: 1.61 µM
- TGI [59]: 3.02 µM
